Reference: patent US9113629B2, “4-amino-6-(4-substituted-phenyl)-picolinates and 6-amino-2-(4-substituted-phenyl)-pyrimidine-4-carboxylates and their use as herbicides” (DOW AGROSCIENCES LLC, priority 2013, dated 2015)
Like-named read-outs stand apart in the source and are kept apart here.

Key:
[1] = test system: Key Broadleaf Weed and Crop Species; assay: Post-emergent Test II herbicidal activity (Table 5); type: in vivo; conditions: post-emergence, 336 h, 14 days after application
Description: (§1) Post-emergent Test II: Seeds or nutlets of the desired test plant species were planted in Sun Gro Metro-Mix® 360 planting mixture, which typically has a pH of 6.0 to 6.8 and an organic matter content of about 30 percent, in plastic pots with a surface area of 64 square centimeters. When required to ensure good germination and healthy plants, a fungicide treatment and/or other chemical or physical treatment was applied. The plants were grown for 7-21 d in a greenhouse with an approximate 15 h photoperiod which was maintained at about 23-29° C. during the day and 22-28° C. during the night. Nutrients and water were added on a regular basis and supplemental lighting was provided with overhead metal halide 1000-Watt lamps as necessary. The plants were employed for testing when they reached the first or second true leaf stage.
(§2) A weighed amount, determined by the highest rate to be tested, of each test compound was placed in a 25 mL glass vial and was dissolved in 4 mL of a 97:3 v/v mixture of acetone and DMSO to obtain concentrated stock solutions. […] The concentrated stock solutions obtained were diluted with 20 mL of an aqueous mixture containing acetone, water, isopropyl alcohol, DMSO. Atplus 411F crop oil concentrate, and Triton® X-155 surfactant in a 48.5:39:10:1.5:1.0:0.02 v/v ratio to obtain spray solutions containing the highest application rates. Additional application rates were obtained by serial dilution of 12 mL of the high rate solution into a solution containing 2 mL of 97:3 v/v mixture of acetone and DMSO and 10 mL of an aqueous mixture containing acetone, water, isopropyl alcohol, DMSO, Atplus 411F crop oil concentrate, and Triton X-155 surfactant in a 48.5:39:10:1.5:1.0:0.02 v/v ratio to obtain ½×, ¼×, ⅛× and 1/16× rates of the high rate. Compound requirements are based upon a 12 mL application volume at a rate of 187 liters per hectare (L/ha). Formulated compounds were applied to the plant material with an overhead Mandel track sprayer equipped with 8002E nozzles calibrated to deliver 187 L/ha over an application area of 0.503 square meters at a spray height of 18 inches (43 cm) above the average plant canopy height. Control plants were sprayed in the same manner with the solvent blank.
(§3) The treated plants and control plants were placed in a greenhouse as described above and watered by subirrigation to prevent wash-off of the test compounds. After 14 d, the condition of the test plants as compared with that of the untreated plants was determined visually and scored on a scale of 0 to 100 percent where 0 corresponds to no injury and 100 corresponds to complete kill.

[2] = test system: Key Grass and Sedge Weeds as well as Grass Crops; assay: Post-emergent Test II herbicidal activity (Table 6); type: in vivo; conditions: post-emergence, 336 h; for pest or weed control at 70 g/ha: application rate 70 g ai/ha; for pest or weed control at 140 g/ha: application rate 140 g ai/ha
Description: as §1, §2, §3

[3] = Triticum aestivum, TRZSS (wheat), read-out: Visual Growth Reduction (%) 14 Days After Application, TRZSS
[4] = CYPES: yellow nutsedge (Cyperus esculentus), read-out: Visual Growth Reduction (%) 14 Days After Application, CYPES
[5] = DIGSA: crabgrass (Digitaria sanguinalis), read-out: Visual Growth Reduction (%) 14 Days After Application, DIGSA
[6] = ORYSA: rice (Oryza sativa), read-out: Visual Growth Reduction (%) 14 Days After Application, ORYSA
[7] = SETFA: giant foxtail (Setaria faberi), read-out: Visual Growth Reduction (%) 14 Days After Application, SETFA
[8] = SORVU: grain sorghum (Sorghum vulgare), read-out: Visual Growth Reduction (%) 14 Days After Application, SORVU
[9] = ZEAMX: maize, corn (Zea mays), read-out: Visual Growth Reduction (%) 14 Days After Application, ZEAMX

SMILES	melting point [°C]	pest or weed control at 70 g/ha [2, 3] [%]	pest or weed control at 140 g/ha [2, 3] [%]	pest or weed control at 70 g/ha [2, 4] [%]	pest or weed control at 140 g/ha [2, 4] [%]	pest or weed control at 70 g/ha [2, 5] [%]	pest or weed control at 140 g/ha [2, 5] [%]	pest or weed control at 70 g/ha [2, 6] [%]	pest or weed control at 140 g/ha [2, 6] [%]	pest or weed control at 70 g/ha [2, 7] [%]	pest or weed control at 140 g/ha [2, 7] [%]	pest or weed control at 70 g/ha [2, 8] [%]	pest or weed control at 140 g/ha [2, 8] [%]	pest or weed control at 70 g/ha [2, 9] [%]	pest or weed control at 140 g/ha [2, 9] [%]	further results
C#Cc1ccc(-c2nc(C(=O)O)c(Cl)c(N)c2C)cc1F [Compound 6, 4-Amino-3-chloro-6-(4-ethynyl-3-fluorophenyl)-5-methylpicolinic acid]	175 to 176.5	–	–	–	–	–	–	–	–	–	–	–	–	–	–	–
C=Cc1c(C(=O)OC)nc(-c2ccc(I)cc2)c(F)c1N [Compound 139, methyl 4-amino-5-fluoro-6-(4-iodophenyl)-3-vinylpicolinate]	95 to 96	–	–	–	–	–	–	–	–	–	–	–	–	–	–	–
C=Cc1c(N)nc(-c2ccc(I)cc2)nc1C(=O)OC [Compound 164, methyl 6-amino-2-(4-iodophenyl)-5-vinylpyrimidine-4-carboxylate]	142 to 144	–	–	–	–	–	–	–	–	–	–	–	–	–	–	–
COC(=O)c1nc(-c2cccc(F)c2)c(F)c(N)c1Cl [Compound 183]	–	0 to 29	0 to 29	0 to 29	0 to 29	0 to 29	0 to 29	0 to 29	0 to 29	0 to 29	0 to 29	30 to 44	45 to 59	0 to 29	0 to 29	pest or weed control at 70 g/ha ([1]; ABUTH: velvetleaf (Abutilon theophrasti), application rate 70 g ai/ha, read-out: Visual Growth Reduction (%) 14 Days After Application, ABUTH): 75 to 84%; pest or weed control at 140 g/ha ([1]; ABUTH: velvetleaf (Abutilon theophrasti), application rate 140 g ai/ha, read-out: Visual Growth Reduction (%) 14 Days After Application, ABUTH): 95 to 100%; pest or weed control at 70 g/ha ([1]; AMARE: redroot pigweed (Amaranthus retroflexus), application rate 70 g ai/ha, read-out: Visual Growth Reduction (%) 14 Days After Application, AMARE): 95 to 100%; pest or weed control at 140 g/ha ([1]; AMARE: redroot pigweed (Amaranthus retroflexus), application rate 140 g ai/ha, read-out: Visual Growth Reduction (%) 14 Days After Application, AMARE): 95 to 100%; pest or weed control at 70 g/ha ([1]; BRSNN: oilseed-rape, canola (Brassica napus), application rate 70 g ai/ha, read-out: Visual Growth Reduction (%) 14 Days After Application, BRSNN): 60 to 74%; pest or weed control at 140 g/ha ([1]; BRSNN: oilseed-rape, canola (Brassica napus), application rate 140 g ai/ha, read-out: Visual Growth Reduction (%) 14 Days After Application, BRSNN): 85 to 94%; pest or weed control at 70 g/ha ([1]; CHEAL: lambsquarters (Chenopodium album), application rate 70 g ai/ha, read-out: Visual Growth Reduction (%) 14 Days After Application, CHEAL): 95 to 100%; pest or weed control at 140 g/ha ([1]; CHEAL: lambsquarters (Chenopodium album), application rate 140 g ai/ha, read-out: Visual Growth Reduction (%) 14 Days After Application, CHEAL): 95 to 100%; pest or weed control at 70 g/ha ([1]; EPHHL: wild poinsettia (Euphorbia heterophylla), application rate 70 g ai/ha, read-out: Visual Growth Reduction (%) 14 Days After Application, EPHHL): 95 to 100%; pest or weed control at 140 g/ha ([1]; EPHHL: wild poinsettia (Euphorbia heterophylla), application rate 140 g ai/ha, read-out: Visual Growth Reduction (%) 14 Days After Application, EPHHL): 95 to 100%; pest or weed control at 70 g/ha ([1]; HELAN: sunflower (Helianthus annuus), application rate 70 g ai/ha, read-out: Visual Growth Reduction (%) 14 Days After Application, HELAN): 85 to 94%; pest or weed control at 140 g/ha ([1]; HELAN: sunflower (Helianthus annuus), application rate 140 g ai/ha, read-out: Visual Growth Reduction (%) 14 Days After Application, HELAN): 85 to 94%; pest or weed control at 70 g/ha ([1]; VIOTR: wild pansy (Viola tricolor), application rate 70 g ai/ha, read-out: Visual Growth Reduction (%) 14 Days After Application, VIOTR): 0 to 29%; pest or weed control at 140 g/ha ([1]; VIOTR: wild pansy (Viola tricolor), application rate 140 g ai/ha, read-out: Visual Growth Reduction (%) 14 Days After Application, VIOTR): 0 to 29%
COC(=O)c1nc(-c2cc(F)ccc2F)c(F)c(N)c1Cl [Compound 189]	–	0 to 29	0 to 29	0 to 29	0 to 29	0 to 29	0 to 29	0 to 29	0 to 29	0 to 29	0 to 29	0 to 29	0 to 29	0 to 29	0 to 29	pest or weed control at 70 g/ha ([1]; ABUTH: velvetleaf (Abutilon theophrasti), 70 g ai/ha, post-emergent, read-out: Visual Growth Reduction (%) 14 Days After Application ABUTH): 75 to 84%; pest or weed control at 140 g/ha ([1]; ABUTH: velvetleaf (Abutilon theophrasti), 140 g ai/ha, post-emergent, read-out: Visual Growth Reduction (%) 14 Days After Application ABUTH): 75 to 84%; pest or weed control at 70 g/ha ([1]; AMARE: redroot pigweed (Amaranthus retroflexus), 70 g ai/ha, post-emergent, read-out: Visual Growth Reduction (%) 14 Days After Application AMARE): 95 to 100%; pest or weed control at 140 g/ha ([1]; AMARE: redroot pigweed (Amaranthus retroflexus), 140 g ai/ha, post-emergent, read-out: Visual Growth Reduction (%) 14 Days After Application AMARE): 95 to 100%; pest or weed control at 70 g/ha ([1]; BRSNN: oilseed-rape, canola (Brassica napus), 70 g ai/ha, post-emergent, read-out: Visual Growth Reduction (%) 14 Days After Application BRSNN): 45 to 59%; pest or weed control at 140 g/ha ([1]; BRSNN: oilseed-rape, canola (Brassica napus), 140 g ai/ha, post-emergent, read-out: Visual Growth Reduction (%) 14 Days After Application BRSNN): 60 to 74%; pest or weed control at 70 g/ha ([1]; CHEAL: lambsquarters (Chenopodium album), 70 g ai/ha, post-emergent, read-out: Visual Growth Reduction (%) 14 Days After Application CHEAL): 85 to 94%; pest or weed control at 140 g/ha ([1]; CHEAL: lambsquarters (Chenopodium album), 140 g ai/ha, post-emergent, read-out: Visual Growth Reduction (%) 14 Days After Application CHEAL): 85 to 94%; pest or weed control at 70 g/ha ([1]; EPHHL: wild poinsettia (Euphorbia heterophylla), 70 g ai/ha, post-emergent, read-out: Visual Growth Reduction (%) 14 Days After Application EPHHL): 0 to 29%; pest or weed control at 140 g/ha ([1]; EPHHL: wild poinsettia (Euphorbia heterophylla), 140 g ai/ha, post-emergent, read-out: Visual Growth Reduction (%) 14 Days After Application EPHHL): 0 to 29%; pest or weed control at 70 g/ha ([1]; HELAN: sunflower (Helianthus annuus), 70 g ai/ha, post-emergent, read-out: Visual Growth Reduction (%) 14 Days After Application HELAN): 85 to 94%; pest or weed control at 140 g/ha ([1]; HELAN: sunflower (Helianthus annuus), 140 g ai/ha, post-emergent, read-out: Visual Growth Reduction (%) 14 Days After Application HELAN): 85 to 94%; pest or weed control at 140 g/ha ([1]; VIOTR: wild pansy (Viola tricolor), 140 g ai/ha, post-emergent, read-out: Visual Growth Reduction (%) 14 Days After Application VIOTR): 0 to 29%
COc1c(N)nc(-c2ccccc2)nc1C(=O)O [Compound 207]	130 to 132	–	–	–	–	–	–	–	–	–	–	–	–	–	–	–
